Data published in paper PMC12269308, “Martinostat as a novel HDAC inhibitor to overcome tyrosine kinase inhibitor resistance in chronic myeloid leukemia” (Clinical Epigenetics, 2025).

Columns and labels:
Conditions in all cases: read-out: IC50 (nM)^1 / Martinostat
HDAC2 = HDAC2 (Homo sapiens, UniProt Q92769); assay: fluorescence HDAC isoenzyme activity assay; format: biochemical
HDAC1 = HDAC1 (Homo sapiens, UniProt Q13547); assay: fluorescence HDAC isoenzyme activity assay; format: biochemical
HDAC11 = target: T1, HDAC11 (Homo sapiens, UniProt Q96DB2); assay: fluorescence HDAC isoenzyme activity assay; format: biochemical
T1 sequence (Q96DB2 1-347): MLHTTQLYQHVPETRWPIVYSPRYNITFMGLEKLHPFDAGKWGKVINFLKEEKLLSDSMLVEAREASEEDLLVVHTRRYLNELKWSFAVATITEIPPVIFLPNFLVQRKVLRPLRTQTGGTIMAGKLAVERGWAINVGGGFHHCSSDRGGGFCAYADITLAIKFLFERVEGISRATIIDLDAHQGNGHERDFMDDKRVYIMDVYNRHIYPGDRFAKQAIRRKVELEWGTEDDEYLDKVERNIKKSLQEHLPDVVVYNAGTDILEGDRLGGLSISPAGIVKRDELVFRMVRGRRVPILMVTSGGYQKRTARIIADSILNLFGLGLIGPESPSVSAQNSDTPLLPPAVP

HDAC10 = target: T2, HDAC10 (Homo sapiens, UniProt Q969S8); assay: fluorescence HDAC isoenzyme activity assay; format: biochemical
T2 sequence (Q969S8 1-669): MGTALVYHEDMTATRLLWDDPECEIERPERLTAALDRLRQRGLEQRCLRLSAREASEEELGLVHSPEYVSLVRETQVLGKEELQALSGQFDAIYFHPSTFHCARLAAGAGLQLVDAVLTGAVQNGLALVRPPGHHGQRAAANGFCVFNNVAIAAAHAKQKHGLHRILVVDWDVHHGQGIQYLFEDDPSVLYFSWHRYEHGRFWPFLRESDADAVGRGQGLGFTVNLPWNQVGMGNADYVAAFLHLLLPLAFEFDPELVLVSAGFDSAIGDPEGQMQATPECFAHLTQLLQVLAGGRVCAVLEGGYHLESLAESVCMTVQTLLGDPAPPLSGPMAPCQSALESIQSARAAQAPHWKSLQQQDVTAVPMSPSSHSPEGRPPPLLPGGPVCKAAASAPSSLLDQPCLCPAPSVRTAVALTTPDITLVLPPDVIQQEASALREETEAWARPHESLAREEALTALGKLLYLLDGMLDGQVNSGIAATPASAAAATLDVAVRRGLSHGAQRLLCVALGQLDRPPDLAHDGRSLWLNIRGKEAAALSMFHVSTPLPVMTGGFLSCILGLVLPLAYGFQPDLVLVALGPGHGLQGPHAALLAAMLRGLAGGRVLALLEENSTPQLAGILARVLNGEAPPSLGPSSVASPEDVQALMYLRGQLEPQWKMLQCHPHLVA

HDAC3 = HDAC3 (Homo sapiens, UniProt O15379); assay: fluorescence HDAC isoenzyme activity assay; format: biochemical
HDAC8 = target: T3, HDAC8 (Homo sapiens, UniProt Q9BY41); assay: biochemical; design: Fluorescence HDAC isoenzyme deacetylase activity assay, excitation 360 nm, emission 460 nm
T3 sequence (Q9BY41 1-377): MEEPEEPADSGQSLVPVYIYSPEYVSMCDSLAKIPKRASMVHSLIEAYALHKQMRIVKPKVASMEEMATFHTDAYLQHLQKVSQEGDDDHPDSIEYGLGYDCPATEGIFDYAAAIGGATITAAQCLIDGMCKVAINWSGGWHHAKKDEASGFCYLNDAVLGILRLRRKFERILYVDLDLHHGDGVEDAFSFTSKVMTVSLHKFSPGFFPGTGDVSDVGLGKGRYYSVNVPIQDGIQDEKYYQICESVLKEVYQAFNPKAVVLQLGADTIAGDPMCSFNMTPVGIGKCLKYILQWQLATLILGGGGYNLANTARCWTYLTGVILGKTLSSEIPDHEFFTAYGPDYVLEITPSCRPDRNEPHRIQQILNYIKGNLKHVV
Description: HDAC activity assays were performed as previously reported. The fluorescence signal was measured using a SpectraMax i3x fluorimeter (Molecular Devices Korea) with SoftMax Pro software at an excitation wavelength of 360 nm and an emission wavelength of 460 nm. […] We conducted total HDAC activity assays to assess the effect of martinostat on the deacetylase activity in vitro.

HDAC6 = target: T4, HDAC6 (Homo sapiens, UniProt Q9UBN7); assay: fluorescence HDAC isoenzyme activity assay; format: biochemical
T4 sequence (Q9UBN7 1-1215): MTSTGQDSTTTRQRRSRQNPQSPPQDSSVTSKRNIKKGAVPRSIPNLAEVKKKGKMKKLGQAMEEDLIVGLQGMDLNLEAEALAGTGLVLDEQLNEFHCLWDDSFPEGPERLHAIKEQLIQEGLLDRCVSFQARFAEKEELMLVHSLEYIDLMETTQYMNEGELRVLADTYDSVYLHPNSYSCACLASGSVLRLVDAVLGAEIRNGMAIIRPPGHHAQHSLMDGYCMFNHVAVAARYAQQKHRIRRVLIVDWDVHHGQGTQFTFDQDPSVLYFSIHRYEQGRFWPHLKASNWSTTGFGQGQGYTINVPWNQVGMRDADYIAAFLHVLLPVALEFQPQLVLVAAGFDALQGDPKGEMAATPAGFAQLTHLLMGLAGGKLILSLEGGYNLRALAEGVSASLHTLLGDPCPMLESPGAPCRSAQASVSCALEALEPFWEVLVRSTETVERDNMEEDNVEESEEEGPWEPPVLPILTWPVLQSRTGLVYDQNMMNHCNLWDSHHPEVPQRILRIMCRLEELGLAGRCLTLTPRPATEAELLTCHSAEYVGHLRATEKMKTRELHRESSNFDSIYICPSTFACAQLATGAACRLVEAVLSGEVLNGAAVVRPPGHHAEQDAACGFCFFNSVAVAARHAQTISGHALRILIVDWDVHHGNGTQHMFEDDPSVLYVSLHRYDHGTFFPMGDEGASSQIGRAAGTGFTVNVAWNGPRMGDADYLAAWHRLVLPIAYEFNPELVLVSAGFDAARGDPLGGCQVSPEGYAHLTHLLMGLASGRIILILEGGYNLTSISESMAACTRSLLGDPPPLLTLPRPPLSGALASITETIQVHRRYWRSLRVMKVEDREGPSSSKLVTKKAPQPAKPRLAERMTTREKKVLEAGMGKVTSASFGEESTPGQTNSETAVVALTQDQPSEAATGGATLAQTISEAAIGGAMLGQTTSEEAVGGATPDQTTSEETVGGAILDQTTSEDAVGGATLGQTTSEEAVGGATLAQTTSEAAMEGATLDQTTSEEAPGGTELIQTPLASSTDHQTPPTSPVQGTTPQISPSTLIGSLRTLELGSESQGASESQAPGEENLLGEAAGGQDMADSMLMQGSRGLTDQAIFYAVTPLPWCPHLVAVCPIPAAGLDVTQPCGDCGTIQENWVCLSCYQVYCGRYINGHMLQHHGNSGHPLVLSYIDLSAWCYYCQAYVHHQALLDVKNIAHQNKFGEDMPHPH

HDAC3, sequence (O15379 whole entry): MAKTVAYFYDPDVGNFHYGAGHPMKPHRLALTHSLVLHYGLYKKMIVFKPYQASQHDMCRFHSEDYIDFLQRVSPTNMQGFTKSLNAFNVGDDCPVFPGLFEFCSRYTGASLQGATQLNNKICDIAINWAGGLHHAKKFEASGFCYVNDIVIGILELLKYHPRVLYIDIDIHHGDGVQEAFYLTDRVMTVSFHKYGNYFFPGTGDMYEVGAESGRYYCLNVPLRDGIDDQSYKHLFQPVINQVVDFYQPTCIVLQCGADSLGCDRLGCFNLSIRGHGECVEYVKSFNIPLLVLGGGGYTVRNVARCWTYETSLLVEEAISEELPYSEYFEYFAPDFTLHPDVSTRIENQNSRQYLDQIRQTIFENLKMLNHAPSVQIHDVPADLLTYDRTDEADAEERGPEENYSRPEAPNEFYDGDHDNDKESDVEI
HDAC1, sequence (Q13547 whole entry): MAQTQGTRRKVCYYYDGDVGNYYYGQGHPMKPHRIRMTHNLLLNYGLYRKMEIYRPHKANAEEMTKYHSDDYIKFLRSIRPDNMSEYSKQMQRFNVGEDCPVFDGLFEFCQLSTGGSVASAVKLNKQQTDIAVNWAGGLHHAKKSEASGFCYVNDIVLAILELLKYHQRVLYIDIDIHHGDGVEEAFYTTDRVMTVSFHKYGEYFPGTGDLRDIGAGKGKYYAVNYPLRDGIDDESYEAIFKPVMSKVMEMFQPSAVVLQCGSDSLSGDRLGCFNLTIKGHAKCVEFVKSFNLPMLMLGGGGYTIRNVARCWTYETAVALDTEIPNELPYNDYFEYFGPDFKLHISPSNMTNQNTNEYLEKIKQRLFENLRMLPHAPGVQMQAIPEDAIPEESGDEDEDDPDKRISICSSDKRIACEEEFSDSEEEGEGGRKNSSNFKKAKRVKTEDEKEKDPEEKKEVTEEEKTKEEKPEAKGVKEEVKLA
HDAC2, sequence (Q92769 whole entry): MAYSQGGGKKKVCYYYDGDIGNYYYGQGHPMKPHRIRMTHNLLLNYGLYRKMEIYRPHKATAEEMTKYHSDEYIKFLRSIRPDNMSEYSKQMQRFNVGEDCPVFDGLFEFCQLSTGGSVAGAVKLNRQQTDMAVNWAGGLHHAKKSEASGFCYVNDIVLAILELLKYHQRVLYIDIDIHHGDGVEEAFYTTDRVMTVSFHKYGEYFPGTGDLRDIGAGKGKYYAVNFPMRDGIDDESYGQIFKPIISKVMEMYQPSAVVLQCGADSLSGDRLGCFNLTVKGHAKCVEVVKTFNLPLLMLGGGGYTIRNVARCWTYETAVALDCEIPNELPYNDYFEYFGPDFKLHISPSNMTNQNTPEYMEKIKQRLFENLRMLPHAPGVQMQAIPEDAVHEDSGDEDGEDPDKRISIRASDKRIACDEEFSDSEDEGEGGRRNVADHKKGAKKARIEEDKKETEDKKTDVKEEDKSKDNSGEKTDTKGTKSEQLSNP

For `CN(Cc1ccc(/C=C/C(=O)NO)cc1)CC12CC3CC(CC(C3)C1)C2` [martinostat], the IC50 (HDAC2) was 61 ± 7 nM, the IC50 (HDAC1) was 80 ± 3 nM and the IC50 (HDAC11) was 34 ± 1 nM. For the same compound, the IC50 (HDAC10) was 72 ± 7 nM, the IC50 (HDAC3) was 79 ± 8 nM and the IC50 (HDAC8) was 1650 ± 155 nM. It also gave an IC50 (HDAC6) of 70 ± 7 nM.
